# Paper PMC6271856, “Leishmanicidal Evaluation of Tetrahydroprotoberberine and Spirocyclic Erythrina-Alkaloids” (Molecules, 2014)
# Read-outs that look alike come from different tables or passages of the source.
# Key:
# [1] = system: Leishmania amazonensis promastigote forms; test: Leishmanicidal MTT assay on promastigote forms; format: cell-based; conditions: for IC50: Leishmania amazonensis, read-out: L. amazonensis IC50
# [2] = in vitro; conditions: mouse
# [3] = Macrophages in vitro cytotoxic assay (MTT); conditions: mouse, J774A.1 macrophage cells
# [4] = promastigote forms, 48 h treatment, MTT
Compound,"IC50 [1, 4] [µg/mL]",CC50 [2] [µg/mL],IC50 ([1]; 48 h) [µg/mL],SI (Selectivity Index = CC50 drug/IC50 drug) [1],SI (Selectivity Index = CC50 drug/IC50 drug) ([1]; CC50 J774 macrophages / IC50 L. amazonensis promastigotes),CC50 at 48 h [3] [µg/mL]
"COC1C=CC2=CC(=O)N3CCc4cc5c(cc4C23C1)OCO5 (stereo not drawn) [Compound 4, 8-oxoerythraline]",> 1000,> 1000,–,–,–,–
"COc1cc2c(cc1OC)C13CC(OC)C(=O)C=C1CCN3CC2 (stereo not drawn) [Compound 9, Erythratidinone]",–,> 1000,> 1000,–,–,–
"COC1C=CC2=CCN3CC(O)c4cc5c(cc4C23C1)OCO5 (stereo not drawn) [Compound 7, Erythrinine]",–,60,39.5,1.52,–,–
"COc1cc2c(cc1O)[C@]13C[C@@H](OC)C=CC1=CCN3CC2 [Compound 8, Erysovine]",–,> 1000,> 1000,–,–,–
COc1ccc2c(c1O)[C@@H]1Cc3cc4c(cc3CN1CC2)OCO4 [Compound 1],0.18,–,–,–,284.55,51.2
"CO[C@H]1C=CC2=CCN3CCc4cc5c(cc4[C@]23C1)OCO5 [Compound 3, erythraline]",–,69.3,65.3,1.06,–,–
"C[C@@H]1[C@H](O)[C@@H](C)/C=C/C=C/C=C/C=C/C=C/C=C/C=C/[C@H](O[C@@H]2O[C@H](C)[C@@H](O)[C@H](N)[C@@H]2O)C[C@@H]2O[C@](O)(C[C@@H](O)C[C@@H](O)[C@H](O)CC[C@@H](O)C[C@@H](O)CC(=O)O[C@H]1C)C[C@H](O)[C@H]2C(=O)O [Amphotericin B, reference compound]",0.2,–,–,–,–,–
"COC1C=CC2=CC(=O)N3C=Cc4cc5c(cc4C23C1)OCO5 (stereo not drawn) [Compound 6, Crystamidine]",71.5,59,–,0.82,–,–
COc1cc2c(cc1OC)CN1CCc3ccc(OC)c(O)c3[C@@H]1C2 [Compound 2],> 1000,–,–,–,–,96.6
